# Like-named read-outs stand apart in the source and are kept apart here.
# Tests used:
# Assay in all cases: biochemical
# Type in all cases: binding
# [1] = biological target: panel of 468 diverse kinases (Homo sapiens, UniProt O14730); conditions: RIOK3; 1000 nM; read-out: Percent Control
# [2] = biological target: panel of 468 diverse kinases (Homo sapiens, UniProt Q9H0K1); conditions: SIK2; 1000 nM; read-out: Percent Control
# [3] = biological target: panel of 468 diverse kinases (Homo sapiens, UniProt Q13237); conditions: PRKG2; 1000 nM; read-out: Percent Control
# Chain of panel of 468 diverse kinases (Homo sapiens, UniProt Q13237) (Q13237 2-762 limits assumed): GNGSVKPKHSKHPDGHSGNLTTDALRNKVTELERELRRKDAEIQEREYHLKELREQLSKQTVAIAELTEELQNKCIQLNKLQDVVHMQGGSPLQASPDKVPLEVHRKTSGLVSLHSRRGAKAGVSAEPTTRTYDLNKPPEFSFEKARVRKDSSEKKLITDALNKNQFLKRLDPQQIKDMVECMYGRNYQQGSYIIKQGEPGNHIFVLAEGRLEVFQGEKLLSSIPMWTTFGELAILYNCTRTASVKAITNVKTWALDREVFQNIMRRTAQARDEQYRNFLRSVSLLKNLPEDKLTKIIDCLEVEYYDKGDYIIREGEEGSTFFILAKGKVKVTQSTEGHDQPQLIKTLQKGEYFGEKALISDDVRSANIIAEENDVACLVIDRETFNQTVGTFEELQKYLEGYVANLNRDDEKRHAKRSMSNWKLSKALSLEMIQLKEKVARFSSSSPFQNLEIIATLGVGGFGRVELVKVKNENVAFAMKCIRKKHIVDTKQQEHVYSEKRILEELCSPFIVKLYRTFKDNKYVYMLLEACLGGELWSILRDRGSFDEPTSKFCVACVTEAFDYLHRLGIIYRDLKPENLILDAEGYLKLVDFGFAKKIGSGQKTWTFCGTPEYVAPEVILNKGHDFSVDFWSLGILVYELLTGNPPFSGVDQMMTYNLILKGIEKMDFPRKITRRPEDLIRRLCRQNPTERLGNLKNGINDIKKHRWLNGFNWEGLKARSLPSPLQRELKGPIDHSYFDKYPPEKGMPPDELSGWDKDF
# [4] = biological target: panel of 468 diverse kinases (Homo sapiens, UniProt P22694); conditions: PKAC-beta; 1000 nM; read-out: Percent Control
# [5] = biological target: panel of 468 diverse kinases (Homo sapiens, UniProt P27448); conditions: MARK3; 1000 nM; read-out: Percent Control
# [6] = biological target: panel of 468 diverse kinases (Homo sapiens, UniProt P50750); conditions: CDK9; 1000 nM; read-out: Percent Control
# [7] = biological target: panel of 468 diverse kinases (Homo sapiens, UniProt P41240); conditions: CSK; 1000 nM; read-out: Percent Control
# [8] = biological target: panel of 468 diverse kinases (Homo sapiens, UniProt P49760); conditions: CLK2; 1000 nM; read-out: Percent Control
# [9] = biological target: panel of 468 diverse kinases (Homo sapiens, UniProt P31751); conditions: AKT2; 1000 nM; read-out: Percent Control
# [10] = biological target: panel of 468 diverse kinases (Homo sapiens, UniProt P49841); conditions: GSK3B; 1000 nM; read-out: Percent Control
# [11] = biological target: panel of 468 diverse kinases (Homo sapiens, UniProt P53355); conditions: DAPK1; 1000 nM; read-out: Percent Control
# [12] = biological target: panel of 468 diverse kinases (Homo sapiens, UniProt P30530); conditions: AXL; 1000 nM; read-out: Percent Control
# [13] = biological target: panel of 468 diverse kinases (Homo sapiens, UniProt Q8TDC3); conditions: BRSK1; 1000 nM; read-out: Percent Control
# [14] = biological target: panel of 468 diverse kinases (Homo sapiens, UniProt Q86UE8); conditions: TLK2; 1000 nM; read-out: Percent Control
# [15] = biological target: panel of 468 diverse kinases (Homo sapiens, UniProt P33981); conditions: TTK; 1000 nM; read-out: Percent Control
# [16] = biological target: panel of 468 diverse kinases (Homo sapiens, UniProt Q13976); conditions: PRKG1; 1000 nM; read-out: Percent Control
# Chain of panel of 468 diverse kinases (Homo sapiens, UniProt Q13976) (Q13976 2-671 limits assumed): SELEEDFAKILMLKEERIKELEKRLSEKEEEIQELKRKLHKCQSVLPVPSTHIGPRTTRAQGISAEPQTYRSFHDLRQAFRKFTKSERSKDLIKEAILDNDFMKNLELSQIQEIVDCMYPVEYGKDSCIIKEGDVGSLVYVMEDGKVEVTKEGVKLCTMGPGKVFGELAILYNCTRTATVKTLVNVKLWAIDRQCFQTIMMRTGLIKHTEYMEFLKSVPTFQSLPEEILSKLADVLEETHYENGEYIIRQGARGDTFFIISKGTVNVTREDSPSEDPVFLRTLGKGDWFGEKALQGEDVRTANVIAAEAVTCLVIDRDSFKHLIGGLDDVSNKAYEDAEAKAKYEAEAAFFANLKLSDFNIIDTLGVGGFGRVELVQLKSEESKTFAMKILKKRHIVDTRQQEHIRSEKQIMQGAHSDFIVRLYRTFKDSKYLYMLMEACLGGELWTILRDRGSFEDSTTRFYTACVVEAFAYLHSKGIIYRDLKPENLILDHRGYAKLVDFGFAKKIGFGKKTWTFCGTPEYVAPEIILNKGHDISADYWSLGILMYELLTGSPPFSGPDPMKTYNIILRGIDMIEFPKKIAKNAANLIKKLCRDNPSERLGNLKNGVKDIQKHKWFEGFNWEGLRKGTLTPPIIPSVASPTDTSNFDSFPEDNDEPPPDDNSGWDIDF
# [17] = biological target: panel of 468 diverse kinases (Homo sapiens, UniProt P00533, DEL752-759); conditions: EGFR(S752-I759del); 1000 nM; read-out: Percent Control
# [18] = biological target: panel of 468 diverse kinases (Homo sapiens, UniProt Q6P2M8); conditions: CAMK1B; 1000 nM; read-out: Percent Control
# [19] = biological target: panel of 468 diverse kinases (Homo sapiens, UniProt P09769); conditions: FGR; 1000 nM; read-out: Percent Control
# Chain of panel of 468 diverse kinases (Homo sapiens, UniProt P09769) (P09769 2-529 limits assumed): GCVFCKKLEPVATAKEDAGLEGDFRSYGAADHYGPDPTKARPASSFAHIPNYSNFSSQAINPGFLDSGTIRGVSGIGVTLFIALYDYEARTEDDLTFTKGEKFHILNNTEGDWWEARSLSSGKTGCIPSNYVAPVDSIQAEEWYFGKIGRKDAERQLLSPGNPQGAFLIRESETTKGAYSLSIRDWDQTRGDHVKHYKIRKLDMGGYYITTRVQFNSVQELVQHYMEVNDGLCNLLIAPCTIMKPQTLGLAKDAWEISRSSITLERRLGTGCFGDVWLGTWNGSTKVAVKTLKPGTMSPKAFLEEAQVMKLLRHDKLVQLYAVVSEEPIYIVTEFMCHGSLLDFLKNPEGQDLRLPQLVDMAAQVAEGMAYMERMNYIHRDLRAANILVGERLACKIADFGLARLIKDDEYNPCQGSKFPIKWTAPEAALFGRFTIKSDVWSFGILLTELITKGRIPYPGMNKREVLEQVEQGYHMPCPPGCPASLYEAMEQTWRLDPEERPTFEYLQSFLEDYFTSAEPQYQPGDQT
# [20] = biological target: panel of 468 diverse kinases (Homo sapiens, UniProt P49674); conditions: CSNK1E; 1000 nM; read-out: Percent Control
# [21] = biological target: panel of 468 diverse kinases (Homo sapiens, UniProt Q9H1R3); conditions: MYLK2; 1000 nM; read-out: Percent Control
# Chain of panel of 468 diverse kinases (Homo sapiens, UniProt Q9H1R3) (Q9H1R3 2-596 limits assumed): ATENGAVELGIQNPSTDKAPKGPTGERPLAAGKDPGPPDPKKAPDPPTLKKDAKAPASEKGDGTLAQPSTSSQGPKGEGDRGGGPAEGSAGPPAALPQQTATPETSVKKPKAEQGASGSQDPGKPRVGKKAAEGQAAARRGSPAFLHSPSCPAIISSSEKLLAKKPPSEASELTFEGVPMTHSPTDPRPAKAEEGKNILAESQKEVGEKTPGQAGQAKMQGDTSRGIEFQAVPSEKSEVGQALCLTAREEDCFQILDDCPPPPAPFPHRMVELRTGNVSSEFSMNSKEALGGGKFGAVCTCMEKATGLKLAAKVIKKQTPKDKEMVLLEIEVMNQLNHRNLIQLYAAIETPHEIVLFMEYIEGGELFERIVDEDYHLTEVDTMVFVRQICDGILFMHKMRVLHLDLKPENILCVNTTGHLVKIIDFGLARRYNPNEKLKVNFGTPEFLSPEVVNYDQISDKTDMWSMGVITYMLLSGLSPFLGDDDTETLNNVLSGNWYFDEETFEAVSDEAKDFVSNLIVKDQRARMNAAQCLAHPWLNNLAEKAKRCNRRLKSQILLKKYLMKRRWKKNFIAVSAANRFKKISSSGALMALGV
# [22] = biological target: panel of 468 diverse kinases (Homo sapiens, UniProt Q09013); conditions: DMPK; 1000 nM; read-out: Percent Control
# [23] = biological target: panel of 468 diverse kinases (Homo sapiens, UniProt P30291); conditions: WEE1; 1000 nM; read-out: Percent Control
# [24] = biological target: panel of 468 diverse kinases (Homo sapiens, UniProt P19784); conditions: CSNK2A2; 1000 nM; read-out: Percent Control
# [25] = biological target: panel of 468 diverse kinases (Homo sapiens, UniProt Q08345); conditions: DDR1; 1000 nM; read-out: Percent Control
# Chain of panel of 468 diverse kinases (Homo sapiens, UniProt Q08345) (Q08345 19-913 limits assumed): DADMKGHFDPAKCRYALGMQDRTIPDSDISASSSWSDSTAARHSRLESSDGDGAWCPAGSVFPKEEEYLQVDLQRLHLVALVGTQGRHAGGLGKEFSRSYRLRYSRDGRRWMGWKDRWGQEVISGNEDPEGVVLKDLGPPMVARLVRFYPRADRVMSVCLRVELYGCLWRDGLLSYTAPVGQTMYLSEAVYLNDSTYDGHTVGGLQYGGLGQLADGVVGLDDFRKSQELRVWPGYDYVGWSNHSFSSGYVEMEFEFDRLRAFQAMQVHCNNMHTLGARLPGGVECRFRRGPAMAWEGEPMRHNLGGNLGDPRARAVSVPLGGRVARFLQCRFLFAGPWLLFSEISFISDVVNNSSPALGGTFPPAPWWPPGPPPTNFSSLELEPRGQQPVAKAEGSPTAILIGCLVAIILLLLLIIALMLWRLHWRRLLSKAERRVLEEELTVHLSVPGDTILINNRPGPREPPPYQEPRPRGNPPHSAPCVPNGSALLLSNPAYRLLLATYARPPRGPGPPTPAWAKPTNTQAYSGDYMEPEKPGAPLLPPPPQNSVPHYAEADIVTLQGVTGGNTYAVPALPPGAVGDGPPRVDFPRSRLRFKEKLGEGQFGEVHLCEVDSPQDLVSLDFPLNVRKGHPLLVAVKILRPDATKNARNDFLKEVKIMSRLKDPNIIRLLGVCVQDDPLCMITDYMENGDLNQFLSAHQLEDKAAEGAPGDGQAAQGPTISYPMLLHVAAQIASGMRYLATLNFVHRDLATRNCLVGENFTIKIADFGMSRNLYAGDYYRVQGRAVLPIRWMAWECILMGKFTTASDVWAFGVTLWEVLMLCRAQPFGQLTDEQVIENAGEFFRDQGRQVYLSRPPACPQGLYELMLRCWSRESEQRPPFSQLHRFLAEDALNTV
# [26] = biological target: panel of 468 diverse kinases (Homo sapiens, UniProt P00519, F317I); conditions: 1000 nM, read-out: Percent Control
# [27] = biological target: panel of 468 diverse kinases (Homo sapiens, UniProt P29597); conditions: 1000 nM, read-out: Percent Control
# [28] = biological target: panel of 468 diverse kinases (Homo sapiens, UniProt P00533, L861Q); conditions: EGFR(L861Q); 1000 nM; read-out: Percent Control
# Chain of panel of 468 diverse kinases (Homo sapiens, UniProt P00533, L861Q) (P00533 25-1210 L861Q limits assumed): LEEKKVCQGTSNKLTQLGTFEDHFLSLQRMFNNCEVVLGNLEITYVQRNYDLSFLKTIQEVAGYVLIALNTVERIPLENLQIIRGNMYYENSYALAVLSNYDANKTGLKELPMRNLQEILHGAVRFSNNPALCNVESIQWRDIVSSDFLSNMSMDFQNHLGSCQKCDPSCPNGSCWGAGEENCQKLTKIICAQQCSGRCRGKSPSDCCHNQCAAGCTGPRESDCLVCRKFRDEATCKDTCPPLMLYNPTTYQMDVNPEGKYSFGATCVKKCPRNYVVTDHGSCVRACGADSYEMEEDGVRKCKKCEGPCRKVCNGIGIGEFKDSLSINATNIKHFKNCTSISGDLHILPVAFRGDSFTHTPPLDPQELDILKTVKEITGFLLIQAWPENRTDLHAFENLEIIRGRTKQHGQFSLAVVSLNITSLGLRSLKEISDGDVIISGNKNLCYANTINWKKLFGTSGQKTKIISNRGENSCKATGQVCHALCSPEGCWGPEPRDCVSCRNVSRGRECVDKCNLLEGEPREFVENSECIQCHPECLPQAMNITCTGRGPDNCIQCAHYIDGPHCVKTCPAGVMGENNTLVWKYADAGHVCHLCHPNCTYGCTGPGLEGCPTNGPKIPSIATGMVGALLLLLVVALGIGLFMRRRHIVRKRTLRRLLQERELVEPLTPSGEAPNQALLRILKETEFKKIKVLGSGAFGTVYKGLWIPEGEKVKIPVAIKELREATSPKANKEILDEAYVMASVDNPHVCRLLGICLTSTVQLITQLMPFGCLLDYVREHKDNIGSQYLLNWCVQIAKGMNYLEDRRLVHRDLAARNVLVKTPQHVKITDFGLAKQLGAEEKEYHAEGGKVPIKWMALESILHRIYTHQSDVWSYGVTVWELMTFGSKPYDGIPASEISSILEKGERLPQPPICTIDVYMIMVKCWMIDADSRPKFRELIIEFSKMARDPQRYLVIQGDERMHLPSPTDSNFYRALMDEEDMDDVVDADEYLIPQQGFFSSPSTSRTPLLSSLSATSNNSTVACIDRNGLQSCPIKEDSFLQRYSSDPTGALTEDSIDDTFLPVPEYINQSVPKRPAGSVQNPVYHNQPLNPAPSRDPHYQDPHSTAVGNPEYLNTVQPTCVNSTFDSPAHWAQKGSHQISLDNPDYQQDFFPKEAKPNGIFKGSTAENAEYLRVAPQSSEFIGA
# [29] = biological target: panel of 468 diverse kinases (Homo sapiens, UniProt Q9Y243); conditions: AKT3; 1000 nM; read-out: Percent Control
# [30] = biological target: panel of 468 diverse kinases (Homo sapiens, UniProt P07949, M918T); conditions: RET(M918T); 1000 nM; read-out: Percent Control
# [31] = biological target: panel of 468 diverse kinases (Homo sapiens, UniProt Q8NEV4); conditions: MYO3A; 1000 nM; read-out: Percent Control
smiles,measurement,setting,value
COc1cc2nc(NC3CC3)nc(NC3CCN(C(C)C)CC3)c2cc1OC [Formula IV],remaining activity at 1 µM,[1],100%
same,remaining activity at 1 µM,[2],81%
same,remaining activity at 1 µM,[3],88%
same,remaining activity at 1 µM,[4],96%
same,remaining activity at 1 µM,[5],100%
same,remaining activity at 1 µM,[6],100%
same,remaining activity at 1 µM,[7],98%
same,remaining activity at 1 µM,[8],90%
same,remaining activity at 1 µM,[9],89%
same,remaining activity at 1 µM,[10],72%
same,remaining activity at 1 µM,[11],99%
same,remaining activity at 1 µM,[12],94%
same,remaining activity at 1 µM,[13],92%
same,remaining activity at 1 µM,[14],100%
same,remaining activity at 1 µM,[15],85%
same,remaining activity at 1 µM,[16],64%
same,remaining activity at 1 µM,[17],100%
same,remaining activity at 1 µM,[18],59%
same,remaining activity at 1 µM,[19],100%
same,remaining activity at 1 µM,[20],100%
same,remaining activity at 1 µM,[21],96%
same,remaining activity at 1 µM,[22],99%
same,remaining activity at 1 µM,[23],100%
same,remaining activity at 1 µM,[24],63%
same,remaining activity at 1 µM,[25],88%
same,remaining activity at 1 µM,[26]; ABL1(F317I)-nonphosphorylated,85%
same,remaining activity at 1 µM,[26]; ABL1(F317I)-pho sphorylated,90%
same,remaining activity at 1 µM,[27]; TYK2(JH1domain-catalytic),37%
same,remaining activity at 1 µM,[27]; TYK2(JH2domain-pseudokinase),79%
same,remaining activity at 1 µM,[28],75%
same,remaining activity at 1 µM,[29],91%
same,remaining activity at 1 µM,[30],85%
same,remaining activity at 1 µM,[31],100%
